# Reference: US8372967B2, “Compounds and methods for modulating expression of GCCR” (Isis Pharmaceuticals, Inc., priority 2006, dated 2013)
# Strand notation (5' to 3'): a small letter for the sugar, then the base; units joined by * are phosphorothioate-linked, units joined directly phosphodiester-linked; [ ] holds rarer units or linkages, { } end groups; capitals alone tell only the bases. e = 2'-O-(2-methoxyethyl) (MOE); [5mC] = 5-methylcytosine; d = 2'-deoxy (DNA)
# How the values were obtained:
# DGAT2 mRNA = test: Antisense inhibition of DGAT2 in A10 cells, 75 nM (Table 81); type: cell-based, rat; conditions: approximately 24 hours
# Protocol: Short antisense compounds targeted to a DGAT2 nucleic acid were tested for their effects on DGAT2 mRNA in vitro. Cultured A10 cells in a 96-well plate were treated with 75 nM of short antisense compound. After a treatment period of approximately 24 hours, RNA was isolated from the cells and DGAT2 mRNA levels were measured by quantitative real-time PCR, as described herein. DGAT2 mRNA levels were adjusted according to total RNA content as measured by RIBOGREEN®. Results are presented as percent inhibition of DGAT2, relative to untreated control cells in Table 81.
# rat DGAT2 mRNA = test: Dose-dependent inhibition of DGAT2 in A10 cells (Tables 82, 83); type: cell-based
# Protocol: Additional short antisense compounds targeted to DGAT2 mRNA were tested in vitro in a dose-response experiment. A10 cells were prepared as described above and treated with 6.25, 12.5, 25.0, 50.0, 100.0, and 200.0 nM short antisense compounds to determine if DGAT2 inhibition occurs in a dose-dependent manner. […] Results are presented as percent inhibition, relative to untreated control cells.
# Additional short antisense compounds targeted to DGAT2 mRNA were tested in vitro. A10 cells were prepared as described above and treated with 0.62, 1.85, 5.56, 16.67, 50.0, and 150.0 nM short antisense compounds to determine if DGAT2 inhibition occurs in a dose-dependent manner. DGAT2 mRNA was measured using quantitative real-time PCR, as described herein. […] Results are presented as percent inhibition of rat DGAT2, relative to untreated control cells.
# [1] = Triglyceride, cholesterol and glucose levels, pre-bleed and post-bleed, GCGR study (Table 34); type: in vivo, mouse; parameters: Triglyceride (TRIG) Pre-Bleed / Triglyceride (TRIG) Post-Bleed / Cholesterol (CHOL) Pre-Bleed / Cholesterol (CHOL) Post-Bleed / Glucose Pre-Bleed / Glucose Post-Bleed: unit not given here
# Protocol: (§1) Eight-week old male C57/BL6 mice (Jackson Laboratory, Bar Harbor, Me.) were administered a single dose of GCGR oligonucleotide by intraperitoneal injection at a concentration of […]. Each dose group consisted of four animals. Shown in Table 31 are the sequences, motifs and conjugates of the GCGR antisense compounds used in this study. Bolded residues indicate 2′-O-methoxyethyl (2′-MOE) moieties. All compounds comprise phosphorothioate internucleoside linkages throughout and each cytosine is replaced with 5-methylcytosine. ISIS 386626, ISIS 386627 and ISIS 386628 further comprise a C16 conjugate group attached to the 2′-O position of the sugar via a diamide linkage (2′-OCH2C(═O)N(H)(CH2)4N(H)C(═O)—(CH2)15CH3). GCGR antisense compounds target published GCGR sequences, including Genbank® Accession No. BC031885.1 (SEQ ID NO: 7).
# (§2) Mice were sacrificed 48 hours following injection to determine serum transaminase levels (Table 32); liver, white adipose tissue (WAT), spleen and kidney weight (Table 33); cholesterol, triglyceride and glucose levels (Table 34); GCGR mRNA levels (Tables 35-41); and full-length and total oligonucleotide concentration in liver and kidney (Table 42). Endpoints were assessed using methods described herein and well known to those of ordinary skill in the art. Data is included from a pre-treatment bleed (Pre-Bleed) and post-treatment bleed (Post-Bleed).
# [2] = Organ weights: liver, WAT, spleen, kidney, GCGR study (Table 33); type: in vivo, mouse; conditions: 48 h
# Protocol: as §1, §2
# [3] = ALT & AST levels and toxic effects, GCGR study (Table 32); type: in vivo, mouse; conditions: C57/BL6 mice, pre-treatment bleed
# Protocol: as §1, §2
# GCGR mRNA = GCGR mRNA levels in liver, C57/BL6 mice, single i.p. dose (Tables 35-41); type: in vivo, mouse
# Protocol: Prior to quantitative PCR analysis, primer-probe sets specific to the target gene being measured were evaluated for their ability to be “multiplexed” with a GAPDH amplification reaction. After isolation the RNA is subjected to sequential reverse transcriptase (RT) reaction and real-time PCR, both of which are performed in the same well. RT and PCR reagents were obtained from Invitrogen Life Technologies (Carlsbad, Calif.). […] The RT reaction was carried out by incubation for 30 minutes at 48° C. Following a 10 minute incubation at 95° C. to activate the PLATIN 9M® Taq, 40 cycles of a two-step PCR protocol were carried out: 95° C. for 15 seconds (denaturation) followed by 60° C. for 1.5 minutes (annealing/extension).
# 170 μL of RiboGreen® working reagent (RiboGreen® reagent diluted 1:350 in 10 mM Tris-HCl, 1 mM EDTA, pH 7.5) was pipetted into a 96-well plate containing 30 μL purified cellular RNA. The plate was read in a CytoFluor® 4000 (PE Applied Biosystems) with excitation at 485 nm and emission at 530 nm.
# as §1, §2
# To determine whether the phenotypic changes shown above correlated with a decrease in GCGR mRNA, treated animals were evaluated for levels of target mRNA in liver by real time PCR according to methods described herein. Tables 35 to 41 show results from direct comparisons of the antisense compounds targeting GCGR nucleic acid for their effect on target expression. Results are expressed as percent of saline control.
# mouse SGLT2 mRNA = test: Mouse SGLT2 mRNA in kidney, additional 1-10-1 and 2-8-2 MOE gapmers (Table 68); type: in vivo; conditions: Balb/c mouse kidney
# Protocol: 1-10-1 and 2-8-2 MOE gapmer short antisense compounds were designed to target different regions of the mouse SGLT2 RNA but have complementarity across species. […] All cytidine residues are 5-methylcytidines.
# The short antisense compounds were analyzed for their effect on mouse SGLT2 mRNA levels in vivo. Data was taken from three experiments in which male 6-week old Balb/c mice were dosed twice per week for three weeks with 0.5, 0.1, or 0.02 umol/kg of either a 1-10-1 or 2-8-2 MOE gapmer given by intraperitoneal injection. Mice were sacrificed 48 hours following last administration and evaluated for SGLT2 levels in kidney. Target levels were determined by RT, real-time PCR as described by other examples herein. PCR results were normalized to an internal ISIS control.
# [4] = 6.25 mg/kg group, pre-treatment bleed
# [5] = 6.25 mg/kg single i.p., post-treatment bleed
# [6] = 12.5 mg/kg group, pre-treatment bleed
# [7] = 12.5 mg/kg single i.p., post-treatment bleed
# [8] = 25 mg/kg group, pre-treatment bleed
# [9] = 25 mg/kg single i.p., post-treatment bleed
# [10] = 50 mg/kg group, pre-treatment bleed
# [11] = 50 mg/kg single i.p., post-treatment bleed
substance,measurement,setting,value
372503 (antisense eG*e[5mC]*eA*dG*dG*dT*dT*dG*dT*dG*dT*dG*dT*e[5mC]*eT*eT) [compound 372503],% Control,DGAT2 mRNA,35 % Control
same,percent inhibition of rat DGAT2,rat DGAT2 mRNA; 0.62 nM (Table 83),7%
same,percent inhibition of rat DGAT2,rat DGAT2 mRNA; 1.85 nM (Table 83),10%
same,percent inhibition of rat DGAT2,rat DGAT2 mRNA; 5.56 nM (Table 83),4%
same,percent inhibition of rat DGAT2,rat DGAT2 mRNA; 16.67 nM (Table 83),25%
same,percent inhibition of rat DGAT2,rat DGAT2 mRNA; 50 nM (Table 83),54%
same,percent inhibition of rat DGAT2,rat DGAT2 mRNA; 150 nM (Table 83),80%
372569 (antisense e[5mC]*eA*dT*dG*dA*dG*dG*dA*dT*dG*dA*d[5mC]*eA*e[5mC]) [compound 372569],% Control,DGAT2 mRNA,104 % Control
386628 (antisense TGTCTTGCTGCTTT; chemistry not fully specified) [compound 386628],Cholesterol (CHOL) Pre-Bleed,[1]; [4],83
same,Triglyceride (TRIG) Pre-Bleed,[1]; [4],117
same,Cholesterol (CHOL) Post-Bleed,[1]; [5],85
same,Triglyceride (TRIG) Post-Bleed,[1]; [5],121
same,Cholesterol (CHOL) Pre-Bleed,[1]; [6],90
same,Triglyceride (TRIG) Pre-Bleed,[1]; [6],90
same,Cholesterol (CHOL) Post-Bleed,[1]; [7],94
same,Glucose Post-Bleed,[1]; [7],240
same,Triglyceride (TRIG) Post-Bleed,[1]; [7],123
same,Cholesterol (CHOL) Pre-Bleed,[1]; [8],84
same,Glucose Pre-Bleed,[1]; [8],210
same,Triglyceride (TRIG) Pre-Bleed,[1]; [8],102
same,Cholesterol (CHOL) Post-Bleed,[1]; [9],85
same,Triglyceride (TRIG) Post-Bleed,[1]; [9],129
same,Cholesterol (CHOL) Pre-Bleed,[1]; [10],88
same,Triglyceride (TRIG) Pre-Bleed,[1]; [10],102
same,Cholesterol (CHOL) Post-Bleed,[1]; [11],95
same,Triglyceride (TRIG) Post-Bleed,[1]; [11],98
same,Organ Weights: Kidney,[2]; 6.25 mg/kg single i.p.,102 % saline control
same,Organ Weights: Liver,[2]; 6.25 mg/kg single i.p.,98 % saline control
same,Organ Weights: Spleen,[2]; 6.25 mg/kg single i.p.,151 % saline control
same,Organ Weights: WAT,[2]; 6.25 mg/kg single i.p.,106 % saline control
same,Organ Weights: Kidney,[2]; 12.5 mg/kg single i.p.,99 % saline control
same,Organ Weights: Liver,[2]; 12.5 mg/kg single i.p.,101 % saline control
same,Organ Weights: Spleen,[2]; 12.5 mg/kg single i.p.,114 % saline control
same,Organ Weights: WAT,[2]; 12.5 mg/kg single i.p.,111 % saline control
same,Organ Weights: Kidney,[2]; 25 mg/kg single i.p.,109 % saline control
same,Organ Weights: Liver,[2]; 25 mg/kg single i.p.,102 % saline control
same,Organ Weights: Spleen,[2]; 25 mg/kg single i.p.,113 % saline control
same,Organ Weights: WAT,[2]; 25 mg/kg single i.p.,97 % saline control
same,Organ Weights: Kidney,[2]; 50 mg/kg single i.p.,99 % saline control
same,Organ Weights: Liver,[2]; 50 mg/kg single i.p.,104 % saline control
same,Organ Weights: Spleen,[2]; 50 mg/kg single i.p.,126 % saline control
same,Organ Weights: WAT,[2]; 50 mg/kg single i.p.,100 % saline control
same,ALT Pre-Bleed,[3]; dose group 6.25 mg/kg,22 IU/L
same,AST Pre-Bleed,[3]; dose group 6.25 mg/kg,40 IU/L
same,ALT Pre-Bleed,[3]; dose group 12.5 mg/kg,28 IU/L
same,AST Pre-Bleed,[3]; dose group 12.5 mg/kg,42 IU/L
same,ALT Pre-Bleed,[3]; dose group 25 mg/kg,24 IU/L
same,AST Pre-Bleed,[3]; dose group 25 mg/kg,40 IU/L
same,ALT Pre-Bleed,[3]; dose group 50 mg/kg,28 IU/L
same,AST Pre-Bleed,[3]; dose group 50 mg/kg,44 IU/L
same,GCGR mRNA levels,"GCGR mRNA; 6.25 mg/kg, Table 38 comparison ISIS 148364 & ISIS 386628",77% of saline control
same,GCGR mRNA levels,"GCGR mRNA; 6.25 mg/kg, Table 41 comparison ISIS 386628 & ISIS 386594",97% of saline control
same,GCGR mRNA levels,"GCGR mRNA; 12.5 mg/kg, Table 38 comparison ISIS 148364 & ISIS 386628",53% of saline control
same,GCGR mRNA levels,"GCGR mRNA; 12.5 mg/kg, Table 41 comparison ISIS 386628 & ISIS 386594",38% of saline control
same,GCGR mRNA levels,"GCGR mRNA; 25 mg/kg, Table 38 comparison ISIS 148364 & ISIS 386628",18% of saline control
same,GCGR mRNA levels,"GCGR mRNA; 25 mg/kg, Table 41 comparison ISIS 386628 & ISIS 386594",13% of saline control
same,GCGR mRNA levels,"GCGR mRNA; 50 mg/kg, Table 38 comparison ISIS 148364 & ISIS 386628",2% of saline control
same,GCGR mRNA levels,"GCGR mRNA; 50 mg/kg, Table 41 comparison ISIS 386628 & ISIS 386594",4% of saline control
ISIS 388627 (eG*e[5mC]*dA*d[5mC]*dA*d[5mC]*dA*dG*d[5mC]*dT*eG*e[5mC]),% change in SGLT2 expression relative to saline,mouse SGLT2 mRNA; 0.02 umol/kg i.p. twice per week for three weeks,−38%
same,% change in SGLT2 expression relative to saline,mouse SGLT2 mRNA; 0.1 umol/kg i.p. twice per week for three weeks,−50%
same,% change in SGLT2 expression relative to saline,mouse SGLT2 mRNA; 0.5 umol/kg i.p. twice per week for three weeks,−65%
